Source: ChEMBL document CHEMBL5338793, “Discovery of Pyrimidinediamine Derivatives as Potent Methuosis Inducers for the Treatment of Triple-Negative Breast Cancer” (J Med Chem, 2023)

What was measured:
HCC1806 [1] = test: Antiproliferative activity against human HCC1806 cells assessed as inhibition of cell proliferation at 1 uM incubated for 24 hrs by SRB assay relative to control; assay type: functional
HCC1806 [2] = test: Induction of morphological changes in human HCC1806 cells assessed as rate of intracellular vacuolization at 1 uM incubated for 24 hrs by microscopic analysis relative to control; assay type: functional
HCC1806 [3] = test: Antiproliferative activity against human HCC1806 cells assessed as inhibition of cell proliferation incubated for 24 hrs by SRB assay; assay type: functional, cell-based; details: HCC1806, 24 h
HCC1806 [4] = test: Antiproliferative activity against human HCC1806 cells assessed as inhibition of cell proliferation at 2 uM incubated for 24 hrs by SRB assay relative to control; assay type: functional
184B5 = test: Cytotoxicity against human 184B5 cells assessed as reduction in cell viability at 2 uM incubated for 24 hrs by SRB assay; assay type: toxicity, cell-based; details: 184b5, 24 h

| SMILES | inhibition at 1 µM (HCC1806 [1]) [%] | Activity (HCC1806 [2]) [%] | IC50 (HCC1806 [3]) [nM] | inhibition at 2 µM (HCC1806 [4]) [%] | Activity (184B5) |
| --- | --- | --- | --- | --- | --- |
| COc1cc(Nc2nc(N3C[C@@H](C)O[C@@H](C)C3)ncc2OC)ccc1NC(=O)c1cccc(Br)n1 | 8.34 |  |  |  |  |
| COc1nc(Nc2ccc(NC(=O)c3cccc(Br)n3)c(OC)c2)nc(N2CCNCC2)n1 | 4.27 |  |  |  |  |
| COc1cnc(N2CCNCC2)nc1Nc1ccc(NC(=O)c2cccc(Br)n2)cc1C | 3.6 |  |  |  |  |
| COc1cnc(N2CCNCC2)nc1Nc1ccc(NC(=O)c2ccncn2)cc1C(F)(F)F | 6.52 |  |  |  |  |
| COc1cnc(N2CCNCC2)nc1Nc1ccc(NC(=O)c2cccc(Br)n2)cc1OC(F)(F)F | 84.8 |  |  |  |  |
| COc1cnc(N2CCNCC2)nc1Nc1ccc(NC(=O)c2cccs2)cc1C(F)(F)F | 4.93 |  |  |  |  |
| COc1cnc(N2CCNCC2)nc1Nc1ccc(NC(=O)c2cccc(Br)n2)c(C)c1 | 23.3 |  |  |  |  |
| COc1cnc(N2CCNCC2)nc1Nc1ccc(NC(=O)c2ccncc2)cc1C(F)(F)F | 9.77 |  |  |  |  |
| COc1cnc(N2CCNCC2)nc1Nc1ccc(NC(=O)c2ccccn2)cc1C(F)(F)F | 4.52 |  |  |  |  |
| COc1cc(Nc2nc(N3CCC(OC)CC3)ncc2OC)ccc1NC(=O)c1cccc(Br)n1 | 7.54 |  |  |  |  |
| COc1cc(Nc2nc(N3CCNCC3)ncc2Br)ccc1NC(=O)c1cccc(Br)n1 | 99.3 | 65 | 420 | 38.1 | Non-Toxic |
| COc1cnc(N2CCNCC2)nc1Nc1ccc(NC(=O)c2ncccc2Br)cc1C(F)(F)F | 6.13 |  |  |  |  |
| COc1cc(Nc2nc(N3CCNCC3)ncc2OC)ccc1NC(=O)c1cccc(Br)n1 | 99.3 | 26.5 | 770 | 59.9 | Non-Toxic |
| COc1cnc(N2CCNCC2)nc1Nc1ccc(NC(=O)c2ccc3ccccc3n2)cc1C(F)(F)F | 13.3 |  |  |  |  |
| COc1cnc(N2CCNCC2)nc1Nc1ccc(NC(=O)c2cccc(Cl)n2)cc1C(F)(F)F | 94.1 | 36.83 | 370 | 52.9 | Non-Toxic |
| COc1cc(NC(=O)c2cccc(Br)n2)ccc1Nc1nc(N2CCNCC2)ncc1OC | 97.4 | 30.17 | 970 | 10.4 | Toxic |
| COc1cnc(N2CCNCC2)nc1Nc1ccc(NC(=O)c2cccc(F)n2)cc1C(F)(F)F | 4.48 |  |  |  |  |

| SMILES | inhibition at 1 µM (HCC1806 [1]) [%] | Activity (HCC1806 [2]) [%] | IC50 (HCC1806 [3]) [nM] | inhibition at 2 µM (HCC1806 [4]) [%] | Activity (184B5) |
| --- | --- | --- | --- | --- | --- |
| COc1cnc(N2CCNCC2)nc1Nc1ccc(NC(=O)c2cccc(Br)n2)cn1 | 9.96 |  |  |  |  |
| COc1cc(Nc2cc(N3CCNCC3)nc(SC)n2)ccc1NC(=O)c1cccc(Br)n1 | 11.1 |  |  |  |  |
| COc1cnc(N2CCNCC2)nc1Nc1ccc(NC(=O)c2cccc(Br)n2)cc1C#N | 99 | 39.5 | 890 | 12.6 | Toxic |
| COc1cnc(N2CCNCC2)nc1Nc1ccc(NC(=O)c2cccnc2)cc1C(F)(F)F | 4.54 |  |  |  |  |
| COc1cnc(N2CCNCC2)nc1Nc1ccc(NC(=O)c2cccc(C)n2)cc1C(F)(F)F | 11.2 |  |  |  |  |
| COc1cnc(N2CCNCC2)nc1Nc1ccc(NC(=O)c2cccc(Br)c2)cc1C(F)(F)F | 8.87 |  |  |  |  |
| COc1cnc(N2CCNCC2)nc1Nc1ccc(NC(=O)c2cccc(Br)n2)cc1C(F)(F)F | 99 | 41.5 | 580 | 71.7 | Non-Toxic |
| COc1cc(Nc2ccnc(N3CCNCC3)n2)ccc1NC(=O)c1cccc(Br)n1 | 10.6 |  |  |  |  |
| COc1cnc(N2CCNCC2)nc1Nc1cc(C)c(NC(=O)c2cccc(Br)n2)cc1C | 98.9 | 42.33 | 870 | 6.93 | Toxic |
| COc1cc(Nc2cc(N3CCNCC3)ncn2)ccc1NC(=O)c1cccc(Br)n1 | 11.5 |  |  |  |  |
| COc1cc(Nc2ncnc(N3CCNCC3)n2)ccc1NC(=O)c1cccc(Br)n1 | 10.8 |  |  |  |  |
| COc1cnc(N2CCNCC2)nc1Nc1ccc(NC(=O)c2cc(Br)ccn2)cc1C(F)(F)F | 12.3 |  |  |  |  |
| COc1cnc(N2CCNCC2)nc1Nc1ccc(NC(=O)Cc2cccs2)cc1C(F)(F)F | 6.92 |  |  |  |  |
| COc1cc(Nc2nc(N3CCOCC3)ncc2OC)ccc1NC(=O)c1cccc(Br)n1 | 1.41 |  |  |  |  |
| COc1cnc(N2CCNCC2)nc1Nc1ccc(NC(=O)c2cccc(Br)n2)cc1 | 17.4 |  |  |  |  |
| COc1cnc(N2CCNCC2)nc1Nc1ccc(NC(=O)c2ccco2)cc1C(F)(F)F | 1.86 |  |  |  |  |
| COc1cc(Nc2nc(N3CCNCC3)ncc2Cl)ccc1NC(=O)c1cccc(Br)n1 | 99.2 | 42.33 | 590 | 10.7 | Toxic |
